Reference: PMC10033409, “Autoregulation of GPCR signalling through the third intracellular loop” (Nature, 2023)
Where “and” joins values, the source holds several entries; their conditions need not be identical. Equal entries are not always repeated. Structures can show the parent of a compound that is named as a salt.

Assays:
[1] = tested on: β2AR–Gs peptide FRET sensor; test: ∆FRET assay, β2AR–Gs peptide SPASM FRET sensor; conditions: isoproterenol 100 µM
PTH1R [2] = test: cAMP accumulation, PTH1R; format: cell-based, human; conditions: PTH1R B2AR ICL3
Protocol: (§1) One millilitre of medium was removed from each well containing transfected cells. The remaining volume was used to gently shear and resuspend the cells by pipetting. The cell mixture was centrifuged (3 min, 300g) and media was removed using a vacuum manifold. […] The cells were washed once by repeating this procedure.
(§2) For all other second messenger assays, expression level and cell density of each condition was estimated through fluorescence. Fluorescence spectra for mCerulean (Horiba Fluoromax 4, excitation 430 nm, emission scan 450–600 nm, bandpass 4 nm) and mCitrine (Horiba Fluoromax 4, excitation 490 nm, emission scan 500–600 nm, bandpass 4 nm) were acquired for each condition. Cells were resuspended at 350,000 ± 30,000 fluorescence counts at a wavelength representing optical density of the sample (excitation 430 nm/emission 450 nm), corresponding with 2 × 10^6 ± 5 × 10^5 cells per m^l. This was confirmed by counting the cells on a haemocytometer (Countess II).
Resuspended cells were added 1:1 with a 2× concentration of ligand (10 µl final) into an opaque 384-well flat bottom plate (Greiner Bio-One). […] For dose–response curves, a saturating concentration of forskolin (10 µM) was included as a control to measure cAMP stimulation independent of the transfected receptor. […] For all other experiments, plates were incubated at room temperature for 10 min. […] Reactions were quenched and processed for the cAMP-Glo Assay (Promega) following the manufacturer’s instructions. Luminescence was measured on a Tecan Spark plate reader (500 ms integration, one measurement per well).

PTH1R [3] = biological target: T1, PTH1R (Homo sapiens, UniProt Q03431); test: InsP1 accumulation, PTH1R; format: cell-based; conditions: PTH1R Wild-Type
T1 construct: expressed in transfected cells; host or cells: HEK 293T
T1 sequence (Q03431 27-593): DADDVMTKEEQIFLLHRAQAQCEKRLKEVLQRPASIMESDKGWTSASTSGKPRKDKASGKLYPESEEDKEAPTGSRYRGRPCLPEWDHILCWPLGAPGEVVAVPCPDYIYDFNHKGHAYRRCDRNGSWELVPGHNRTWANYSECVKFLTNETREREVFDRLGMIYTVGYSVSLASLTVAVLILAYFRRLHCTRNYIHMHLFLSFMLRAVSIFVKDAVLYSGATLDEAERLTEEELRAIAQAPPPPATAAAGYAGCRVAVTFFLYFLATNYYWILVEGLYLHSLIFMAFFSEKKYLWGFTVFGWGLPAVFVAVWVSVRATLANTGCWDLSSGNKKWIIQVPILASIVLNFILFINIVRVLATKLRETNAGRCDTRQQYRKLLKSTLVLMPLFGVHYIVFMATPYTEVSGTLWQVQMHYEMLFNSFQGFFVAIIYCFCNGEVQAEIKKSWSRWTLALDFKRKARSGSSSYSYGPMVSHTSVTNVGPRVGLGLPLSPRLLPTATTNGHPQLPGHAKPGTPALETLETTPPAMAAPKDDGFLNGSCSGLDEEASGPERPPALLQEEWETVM
Protocol: as §1, §2
(§3) Resuspended cells were added 1:1 with a 2× concentration of ligand (70 µl final) into an opaque 96-well U-bottom plate (Greiner Bio-One). […] Plates were incubated at 37 °C for 2 h to stimulate InsP1 production. Reactions were quenched and processed for the InsP1 HTRF Assay (CisBio), following a protocol modified to achieve a higher signal to noise ratio. Fifteen microlitres of D2-conjugated InsP1 resuspended in lysis buffer (Cisbio) and 15 µl of terbium cryptate conjugated anti-InsP1 antibody resuspended in lysis buffer (Cisbio) were added to the stimulated cell mixture. Cell lysate was equilibrated for 1 h at ambient temperature with shaking (500 rpm). Reactions were transferred (4 × 20 µl) to a 384-well plate for technical replicates. […] FRET ratio for each reading was calculated as the ratio of acceptor emission to donor emission. InsP1 signal for a drug and transfection combination was calculated as the average FRET ratio of a given transfection condition without drug treatment subtracted from the average FRET ratio of a of a given transfection condition with drug treatment.

PTH1R [4] = test: InsP1 accumulation, PTH1R; format: cell-based, human; conditions: PTH1R B2AR ICL3
Protocol: as §1, §2, §3

[5] = [Isoproterenol] log(M) -8.30103
[6] = [Isoproterenol] log(M) -9.30103
[7] = [Isoproterenol] log(M) -6.30103
[8] = [Isoproterenol] log(M) -7.30103

SMILES: CC(C)NCC(O)c1ccc(O)c(O)c1 (stereo not drawn) [Isoproterenol, isoproterenol (+)-bitartrate salt]
- ∆FRET (Isoproterenol - Buffer) ([1]; HVQ-AAA β2AR–Gs peptide sensor, single experiments N 1-5): 0.012 and 0.013 and 0.020
- ∆FRET (Isoproterenol - Buffer) ([1]; QDG-AAA β2AR–Gs peptide sensor, single experiments N 1-5): 0.021 and 0.017 and 0.027 and 0.030
- ∆FRET (Isoproterenol - Buffer) ([1]; Wild-Type β2AR–Gs peptide sensor, + 10 µM Gq-peptide, single samples): 0.034 and 0.026 and 0.018
- ∆FRET (Isoproterenol - Buffer) ([1]; Wild-Type β2AR–Gs peptide sensor, single experiments N 1-5): 0.014 and 0.016 and 0.017 and 0.019
- ∆FRET (Isoproterenol - Buffer) ([1]; Wild-Type β2AR–Gs peptide sensor, without Gq-peptide, single samples): 0.013 and 0.016 and 0.010 and 0.017 and 0.012
- ∆FRET (Isoproterenol - Buffer) ([1]; ∆ICL3 β2AR–Gs peptide sensor, without Gq-peptide, single samples): 0.022 and 0.020 and 0.025 and 0.024
- cAMP (Isoproterenol/Forskolin Maximum), Average (PTH1R [2]; [Isoproterenol] log(M) -5): 0.73
- cAMP (Isoproterenol/Forskolin Maximum), Average (PTH1R [2]; [Isoproterenol] log(M) -6): 0.71
- cAMP (Isoproterenol/Forskolin Maximum), Average (PTH1R [2]; [Isoproterenol] log(M) -7): 0.69
- cAMP (Isoproterenol/Forskolin Maximum), Average (PTH1R [2]; [Isoproterenol] log(M) -8): 0.49
- cAMP (Isoproterenol/Forskolin Maximum), Average (PTH1R [2]; [5]): 0.39
- cAMP (Isoproterenol/Forskolin Maximum), Average (PTH1R [2]; [Isoproterenol] log(M) -9): 0.0653
- cAMP (Isoproterenol/Forskolin Maximum), Average (PTH1R [2]; [6]): 0.0238
- cAMP (Isoproterenol/Forskolin Maximum), Average (PTH1R [2]; [Isoproterenol] log(M) -10): -0.0474
- cAMP (Isoproterenol/Forskolin Maximum), Average (PTH1R [2]; [Isoproterenol] log(M) -11): 0.02
- cAMP (Isoproterenol/Forskolin Maximum), Average (PTH1R [2]; [Isoproterenol] log(M) -12): -0.0165
- IP1 (AU), Average (PTH1R [3]; [Isoproterenol] log(M) -5): 0.44 AU
- IP1 (AU), Average (PTH1R [3]; [Isoproterenol] log(M) -6): 0.45 AU
- IP1 (AU), Average (PTH1R [3]; [7]): 0.41 AU
- IP1 (AU), Average (PTH1R [3]; [Isoproterenol] log(M) -7): 0.38 AU
- IP1 (AU), Average (PTH1R [3]; [8]): 0.22 AU
- IP1 (AU), Average (PTH1R [3]; [Isoproterenol] log(M) -8): 0.0235 AU
- IP1 (AU), Average (PTH1R [3]; [5]): 0.04 AU
- IP1 (AU), Average (PTH1R [3]; [Isoproterenol] log(M) -9): -0.0234 AU
- IP1 (AU), Average (PTH1R [3]; [Isoproterenol] log(M) -10): -0.0216 AU
- IP1 (AU), Average (PTH1R [3]; [Isoproterenol] log(M) -11): -0.00815 AU
- IP1 (AU), Average (PTH1R [4]; [Isoproterenol] log(M) -5): 0.32 AU
- IP1 (AU), Average (PTH1R [4]; [Isoproterenol] log(M) -6): 0.35 AU
- IP1 (AU), Average (PTH1R [4]; [7]): 0.29 AU
- IP1 (AU), Average (PTH1R [4]; [Isoproterenol] log(M) -7): 0.28 AU
- IP1 (AU), Average (PTH1R [4]; [8]): 0.15 AU
- IP1 (AU), Average (PTH1R [4]; [Isoproterenol] log(M) -8): -0.00248 AU
- IP1 (AU), Average (PTH1R [4]; [5]): -0.00156 AU
- IP1 (AU), Average (PTH1R [4]; [6]): 0.05 AU
- IP1 (AU), Average (PTH1R [4]; [Isoproterenol] log(M) -10): -0.0155 AU
- IP1 (AU), Average (PTH1R [4]; [Isoproterenol] log(M) -11): 0.00619 AU
